Patent US4950669A, “Methods and compositions for promoting growth of animals” (priority 1987, dated 1990)

Tests used:
Type in all cases: in vivo
[1] = six-week swine feeding study, weanling barrows (Example XI); conditions: six weeks; for daily feed (rel.) / Avg. daily gain (rel.): control = 100; for Avg. daily gain / Avg. daily gain (rel.): swine feed
Procedure: N-morpholinyl-β-benzoyl-propionamide was admixed with swine feed at 20 ppm and at 60 ppm. A six-week feeding study was conducted using weanling barrows. Pigs averaging 8.80 kg initially (4-5 weeks of age) were housed four pigs per pen. Test diets were fed ad libitum throughout the six-week study. Average final weight for all pigs was 27.33 kg.

[2] = 44-day floor-pen study in chickens (Example XV); conditions: 44 days
Excerpt: There were 60 chickens per replication, 3 replications per treatment. One group of controls was unmedicated, while a second control group received Bacitracin in the feed at 30 g/ton.

[3] = 44-day floor pen study in chickens (Example XIV)
Procedure: A 44-day floor pen study was conducted in which n-morpholinyl-β-benzoyl-propionamide was administered in chicken feed at concentrations of 1 ppm, 2.5 ppm, 5 ppm, 10 ppm, 20 ppm, 40 ppm and 60 ppm. One group of controls received no medication in its feed, while a second control group received Bacitracin MD in its feed at 30 g/ton. Birds were fed ad libitum. There were 5 replications per treatment, 50 birds per replication. Birds were weighed to determine weight gain and feed-to-gain ration after 35 days and 44 days.

[4] = 21-day battery study in chickens (Example XIII)
Procedure: N-morpholinyl-β-benzoyl-propionamide was admixed with chicken feed at concentrations of 1.0 ppm, 7.5 ppm and 15 ppm. A 21-day battery study was conducted with the NMBP-containing feed. One group of controls was unmedicated, while a second control group received Bacitracin MD in its feed at 30 g/ton. The birds were fed ad libitum and weighed on days 7, 14 and 21. There were 10 birds per replication, 4 replications in controls and 2 replications per drug treatment.

[5] = acute toxicity (LD50) in the mouse; conditions: for LD50: in vivo
[6] = organ weight variations in the rat after per os treatment; conditions: 300 mg/kg per os

## O=C(CCC(=O)N1CCOCC1)c1ccccc1 [NMBP, N-morpholinyl-β-benzoyl-propionamide]
[1]; 20 ppm
  daily feed: 1.022 kg
  daily feed (rel.): 107
  Avg. daily gain: 0.45 kg
  Avg. daily gain (rel.): 108
[1]; 60 ppm
  daily feed: 0.96 kg
  daily feed (rel.): 101
  Avg. daily gain: 0.42 kg
  Avg. daily gain (rel.): 100
[2]; feed 1.0 ppm
  Average Live Bird Weight: 2.13 kg
  Feed Conversion: 1.72
[2]; feed 2.5 ppm
  Average Live Bird Weight: 2.14 kg
  Feed Conversion: 1.73
[2]; feed 5 ppm
  Average Live Bird Weight: 2.08 kg
  Feed Conversion: 1.75
[2]; feed 10 ppm
  Average Live Bird Weight: 2.14 kg
  Feed Conversion: 1.72
[2]; feed 20 ppm
  Average Live Bird Weight: 2.12 kg
  Feed Conversion: 1.72
[2]; feed 40 ppm
  Average Live Bird Weight: 2.10 kg
  Feed Conversion: 1.75
[2]; feed 60 ppm
  Average Live Bird Weight: 2.14 kg
  Feed Conversion: 1.75
[3]; feed 1 ppm, Day 35
  F/G: 1.60
  Weight Gain: 1379 g
[3]; feed 1 ppm, Day 44
  F/G: 1.72
  Weight Gain: 1917 g
[3]; feed 2.5 ppm, Day 35
  F/G: 1.55
  Weight Gain: 1431 g
[3]; feed 2.5 ppm, Day 44
  F/G: 1.69
  Weight Gain: 1961 g
[3]; feed 5 ppm, Day 35
  F/G: 1.61
  Weight Gain: 1381 g
[3]; feed 5 ppm, Day 44
  F/G: 1.72
  Weight Gain: 1929 g
[3]; feed 10 ppm, Day 35
  F/G: 1.60
  Weight Gain: 1356 g
[3]; feed 10 ppm, Day 44
  F/G: 1.74
  Weight Gain: 1883 g
[3]; feed 20 ppm, Day 35
  F/G: 1.61
  Weight Gain: 1364 g
[3]; feed 20 ppm, Day 44
  F/G: 1.72
  Weight Gain: 1901 g
[3]; feed 40 ppm, Day 35
  F/G: 1.63
  Weight Gain: 1334 g
[3]; feed 40 ppm, Day 44
  F/G: 1.72
  Weight Gain: 1898 g
[3]; feed 60 ppm, Day 35
  F/G: 1.57
  Weight Gain: 1334 g
[3]; feed 60 ppm, Day 44
  F/G: 1.72
  Weight Gain: 1875 g
[4]; feed 1 ppm, Day 7
  F/G: 1.38
  Weight Gain: 341 g
[4]; feed 1 ppm, Day 14
  F/G: 1.47
  Weight Gain: 715 g
[4]; feed 1 ppm, Day 21
  F/G: 1.62
  Weight Gain: 1152 g
[4]; feed 7.5 ppm, Day 7
  F/G: 1.40
  Weight Gain: 325 g
[4]; feed 7.5 ppm, Day 14
  F/G: 1.49
  Weight Gain: 697 g
[4]; feed 7.5 ppm, Day 21
  F/G: 1.60
  Weight Gain: 1113 g
[4]; feed 15 ppm, Day 7
  F/G: 1.42
  Weight Gain: 318 g
[4]; feed 15 ppm, Day 14
  F/G: 1.47
  Weight Gain: 688 g
[4]; feed 15 ppm, Day 21
  F/G: 1.54
  Weight Gain: 1164 g
[5]; i.p.
  LD50, safe limits: 648 to 1363 mg/kg
[5]; ip
  LD50: 940 mg/kg
[5]; po, per os
  LD50: > 2000 mg/kg
[6]; controls +0.011
  organ weight variation, suprarenal gland: +0.011%
[6]; controls +0.257
  organ weight variation, heart: +0.304%
[6]; controls +0.598
  organ weight variation, lung: +0.675%
[6]; controls +0.65
  organ weight variation, kidney: +0.71%
[6]; controls +3.22
  organ weight variation, liver: +3.63%
